Experimental data reported in patent US20120270744A1, “METHODS TO DETERMINE IF A SUBJECT WILL RESPOND TO A BCR-ABL INHIBITOR” (Oregon Health & Science University, priority 2007, published 2012).
Where two headings read alike, the source gives them in different places.

Columns and labels:
[1] = system: newly diagnosed chronic phase CML patients; experiment: Cytogenetic response of validation set patients treated with imatinib; format: in vivo, human; conditions: within 12 months, 23 newly diagnosed chronic phase patients
[2] = system: patients with CML in chronic phase; conditions: cited from earlier work; for risk of progression to accelerated phase or blast crisis: at 5 years
[3] = system: Lin−/CD34+/CD38+ and Lin−/CD34+/CD38− CML cells; experiment: Culture of sorted primitive CML cells with imatinib: growth and viability; format: cell-based, human; conditions: 5 μM imatinib, physiological concentrations of cytokines
Experimental: FIGS. 9A-9C are a set of graphs dot plots and digital images of Western blots showing viable cells and phosphotyrosine content following treatment with a BCR-ABL inhibitor. […] (FIG. 9B) After 2 hours, immunoblot analysis of cellular extracts for Crkl phosphorylation was preformed. (FIG. 9C) Aliquots from the same cultures were analyzed by FACS analysis for total cellular phosphotyrosine content. Results were identical after 96 hours of culture.
A combination of lineage-depletion columns and high speed sorting was used to select highly pure populations of Lin−/CD34+/CD38+(enriched for progenitor cells) and Lin−/CD34+/[…] (enriched for stem cells). […] It was concludes that survival of primitive CML cells may not require BCR-ABL kinase activity, implicating BCR-ABL-independent extrinsic or intrinsic mechanisms in the maintenance of viability.

CML CD34+ cells = experiment: Centrifugal adhesion assay to fibronectin with fluorescently labeled cells; format: cell-based, human
From the text: (FIG. 10A) Adhesion under the carious conditions. (FIG. 10B) Fold expansion of viable cells. (FIG. 10C) Recovery of CFU-GM.
To reliably quantify adherence we modified the McClay (1981 PNAS 78:4975-9) centrifugal adhesion assay, using fluorescently labeled cells.

## Cc1ccc(NC(=O)c2ccc(CN3CCN(C)CC3)cc2)cc1Nc1nccc(-c2cccnc2)n1 [imatinib]
[1]
  patients who achieved CCyR: 74%
[2]; 60 months of follow-up
  projected overall survival: 89%
[2]; among those who lost response
  patients who progressed to accelerated phase or blast crisis: 7%
[2]; patients in complete cytogenetic response after 12 months of therapy
  risk of progression to accelerated phase or blast crisis: 3%
[2]; patients with primary cytogenetic resistance
  risk of progression to accelerated phase or blast crisis: 19%
[2]; at 12 months
  patients with primary cytogenetic resistance (failed to attain a major cytogenetic response): approximately 14%
[2]; human, in vivo
  patients who lost their response: approximately 16%
[2]; newly diagnosed CML in chronic phase, imatinib as initial therapy, 60 months of follow-up
  cumulative rate of complete cytogenetic response (CCyR, 0% Ph+ metaphases): 87%
[3]
  viability: viability was maintained
[3]; preliminary experiments N=4
  growth (total number of viable cells over time): reduced to approximately the level of normal cells
CML CD34+ cells; imatinib 5 micoM, 96 hours culture
  spontaneous adhesion to fibronectin: further reduced
CML CD34+ cells; imatinib in presence of beta1 integrin activating antibody B44
  adhesion to fibronectin: again reduced
